From patent US10399986B2, “Inhibitors of leukotriene A4 hydrolase” (CELTAXSYS, INC., priority 2013, dated 2019)
“And” between values parts separate entries of the source, which are not always exact repeats. Equal values may be shown once. Read-outs that look alike come from different tables or passages of the source.

Tests used:
LTA4-h [1] = biological target: T1, LTA4-h (Homo sapiens, UniProt P09960); test: peptidase (aminopeptidase) assay; format: biochemical
T1 sequence (P09960 1-611): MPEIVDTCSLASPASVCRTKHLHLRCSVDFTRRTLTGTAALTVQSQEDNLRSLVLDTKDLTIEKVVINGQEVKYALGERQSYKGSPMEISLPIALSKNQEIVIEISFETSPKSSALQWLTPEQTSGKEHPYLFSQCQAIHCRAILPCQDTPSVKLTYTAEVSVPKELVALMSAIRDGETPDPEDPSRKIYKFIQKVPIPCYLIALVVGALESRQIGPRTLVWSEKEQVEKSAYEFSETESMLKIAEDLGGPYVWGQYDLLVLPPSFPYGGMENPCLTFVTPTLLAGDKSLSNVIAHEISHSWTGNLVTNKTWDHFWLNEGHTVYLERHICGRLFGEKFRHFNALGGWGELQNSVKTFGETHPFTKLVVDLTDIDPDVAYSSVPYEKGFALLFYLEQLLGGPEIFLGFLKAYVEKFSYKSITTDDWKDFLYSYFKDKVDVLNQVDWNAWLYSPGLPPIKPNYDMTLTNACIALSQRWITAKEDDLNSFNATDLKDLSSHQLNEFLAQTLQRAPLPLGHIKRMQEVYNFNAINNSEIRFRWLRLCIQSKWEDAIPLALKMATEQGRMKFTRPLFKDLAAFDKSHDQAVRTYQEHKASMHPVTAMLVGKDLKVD
Description: Since LTA4-h hydrolase is grouped with the M1 family of zinc metalloproteases (see, Rudberg, P. C. et al., J. Biol. Chem. 2002, Vol. 277, page 1398-1404), the compounds of the invention can be tested in the standard hydrolase and peptidase assay to determine the compounds' kinetic constants for binding to LTA4-h hydrolase and for inhibiting LTB4 synthesis (see Askonas, L. J., et al., The Journal of Pharmacology and Experimental Therapeutics 2002, 300(2): 577-582; Penning, T. D., J. Med. Chem. 2000, 43(4): 721-735; Kull, F. et al., The Journal of Biological Chemistry 1999, 274 (49): 34683-34690, the contents of which are expressly incorporated by reference herein).
(§1) The whole blood and aminopeptidase assays were performed as described in Penning et al., J. Med. Chem. 2000, 43, 721-735, and Rudberg et al., J. Biol. Chem. Vol. 279, No. 26, Issue of June 25, pp. 27376-27382, 2004, the contents of each of which are expressly incorporated by reference herein. The hydrolase assay was performed as described in U.S. Pat. No. 7,737,145, the contents of which are expressly incorporated herein.

LTA4-h [2] = biological target: T1, LTA4-h; test: hydrolase assay; format: biochemical
Description: The compounds of the invention can be tested for their ability to inhibit LTA4-h by various known assays and by assays described herein. For example, the compounds can be tested for their ability to inhibit LTA4-h activity by assaying the compounds in the hydrolase-homogeneous time resolved fluorescence assay. This assay, which is a two-step assay, measures the hydrolysis of […] by analyzing the amount of LTB4 produced. The first step involves the enzymatic conversion of […] and the second step involves the quantification of the […] formed with a homogeneous time resolved fluorescence assay.
as §1

LTA4-h hydrolase = biological target: T2, LTA4-h hydrolase (Homo sapiens, UniProt P09960); test: whole blood assay (WBA); format: cell-based
T2 construct: whole blood assay using human, mouse, rat or dog whole blood; from tissue; host or cells: whole blood
T2 sequence (P09960 1-611): T1 sequence (P09960 1-611)
Description: Compounds of the invention can also be tested for their ability as inhibitors of LTA4-h hydrolase in the whole blood assay using human, mouse, rat or dog whole blood (see Penning, T. D. et al., J. Med. Chem. (2000), 43(4): 721-735 for a description of a human whole blood assay and a mouse whole blood assay, the contents of which are expressly incorporated herein).
as §1

[3] = tested on: ionophore-induced LTB4 production; details: oral administration; mouse blood ex vivo; cited from earlier work
[4] = tested on: ionophore-induced LTB4 production; details: oral administration; rat peritoneum in vivo; cited from earlier work
cotton top tamarins = details: eight weeks of treatment; cited from earlier work

Compound | IC50 (LTA4-h [1]) | IC50 (LTA4-h [2]) | IC50 (LTA4-h hydrolase) | other results
2-(4-phenoxyphenylamino)-3-cyano-6-(2-nitro-3-hydroxycarboxyphenyl)pyrazolo[1,5-a]pyrimidine [Compound 9] | 3.3 nM |  |  | Hydrolase % inhibition (LTA4-h [2]; at 1 uM): 20% inhibition at 1 uM
N#Cc1c(Nc2ccc(Oc3ccccc3)cc2)nn2cc(N)cnc12 [Compound 1] | 280 nM | 1500 nM | > 8800 nM | 
CS(=O)(=O)c1ccc(-c2cnc3c(C#N)c(Nc4ccc(Oc5ccccc5)cc4)nn3c2)c([N+](=O)[O-])c1 [Compound 2] | 260 nM | 3700 nM | > 7200 nM | 
N#Cc1c(Nc2ccc(Oc3ccccc3)cc2)nn2cc(-c3cc(C(=O)O)ccc3[N+](=O)[O-])cnc12 [Compound 3] | 430 nM |  | > 10000 nM | inhibition at 3 µM (LTA4-h [2]): 39%
N#Cc1c(Nc2ccc(Oc3ccccc3)cc2)nn2cc(C(=O)c3cc([N+](=O)[O-])ccc3O)cnc12 [Compound 4] | 1700 nM |  |  | inhibition at 3 µM (LTA4-h [2]): 48%
N#Cc1c(Nc2ccc(Oc3ccccc3)cc2)nn2cc(C(=O)c3ccccc3O)cnc12 [Compound 5] | 90 nM and 20 nM | 1400 nM and 490 nM | 4900 nM and 3000 nM | 
N#Cc1c(Nc2ccc(Oc3ccccc3)cc2)nn2cc(C(=O)c3cc(Cl)cc(Cl)c3O)cnc12 [Compound 6] | 960 nM |  |  | inhibition at 3 µM (LTA4-h [2]): 15%
N#Cc1c(Nc2ccc(Oc3ccccc3)cc2)nn2cc(C(=O)c3cc(Cl)ccc3O)cnc12 [Compound 7] | 30 nM and 10 nM | 1600 nM and 2900 nM | 4600 nM and 3000 nM | 
N#Cc1c(Nc2ccc(Oc3ccccc3)cc2)nn2cc(-c3ccc(C(=O)O)cc3[N+](=O)[O-])cnc12 [Compound 10] | 120 nM |  |  | inhibition at 1 µM (LTA4-h [2]; at 1 uM): 20%
N#Cc1c(Nc2ccc(Oc3ccccc3)cc2)nn2cc(-c3cccc(C(=O)O)n3)cnc12 [Compound 11] | 270 nM |  |  | 
N#Cc1c(Nc2ccc(Oc3ccccc3)cc2)nn2cc(-c3ccc(C(=O)O)cn3)cnc12 [Compound 12] | 84 nM |  |  | 
CN(CCCOc1ccc(Cc2ccccc2)cc1)CCC(=O)O.Cl [SC57461] |  |  |  | inhibition of ionophore-induced LTB4 production [3]: caused inhibition; inhibition of ionophore-induced LTB4 production [4]: caused inhibition; colitis symptoms (cotton top tamarins): significantly improved colitis symptoms
